# Measured values taken from patent US20210353579A1, “HIGH PENETRATION COMPOSITIONS AND USES THEREOF” (Techfields Pharma Co., Ltd., priority 2006, published 2021).
# How the values were obtained:
# mice (MRL/LPR) = assay: Anti-lupus erythematosus activity; type: in vivo, mouse; details: 30 mg/kg topically twice per day, after 6 weeks
# Chinese white rabbits [1] = assay: Malassezia-induced lesions similar to psoriasis; type: in vivo, rabbit; details: 5% aqueous solution twice per day, 10 days after application
# Excerpt: Heavy suspensions of Malassezia [Rosenberg, E. W., et al., Mycopathologia, 72, 147-154 (1980)] were applied to the shaved skin on the backs of the Chinese white rabbits (n=4×6) twice (at 7 am and 7 pm) per day for 2 weeks, lesions similar to psoriasis resulted.
# [2] = system: Human breast cancer cells (BCAP-37); assay: Human breast cancer xenograft in nude mice, topical; details: day 42; 30 μl of 5% (1.5 mg) topically every 8 hours from day 14; control 800 ± 100
# Method in brief: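 BCAP-37 tumour tissue (2-3 mm^3) was xenografted subcutaneously into the front leg of nude BALB mice, 7 per group. Compounds were applied topically as 30 μl of 5% solution (1.5 mg) in acetone or water.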
# [3] = system: Human colon cancer cells (LS174J); assay: Human colon cancer xenograft in nude mice, topical; details: day 30, about 30 μl of 5% solution (1.5 mg) topically applied
# Excerpt: Human colon cancer cells (LS174J, 2-3 mm^3 of tumor tissue was used in each mouse) are subcutaneously xenografted into the front leg of nude mice (BALB).
# [4] = system: mice (SLAC:NOD-IDDM, type 1 diabetes); assay: Blood glucose in type 1 diabetes mice, transdermal; type: in vivo, mouse
# Method in brief: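 NOD-IDDM type 1 diabetic mice (n=7) received prodrug transdermally on shaved back skin (~1.5 cm²), at a dose equivalent to 30 mg/kg NSAIA, once daily for 7 weeks. Non-fasted blood glucose was measured every 3 days at 3 pm from week 4 to week 7.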
# Chinese white rabbits [5] = assay: Autologous blood clot pulmonary embolization, thrombus propagation; type: in vivo, rabbit; details: 20 mg/kg topically, after 2 days
# Procedure: Eighteen Chinese White rabbits weighing between 3.0 and 3.5 kg (aged 6-7 months) were selected and divided into three groups (control, P-1 and […] groups, n=6). One hour before the experiment, thrombi were made by aspirating venous blood (1 ml) into a sterilized bottle to clot. To avoid fragmentation and slow lysis, the autologous blood clots were stabilized in temperature-controlled (70° C.) distilled water for 10 min. After anesthesia, the femoral veins were exposed and distally isolated, and autologous blood clots (0.05 g/kg) were injected through an indwelling catheter (20 GA), which had been placed in the femoral vein isolated earlier. 50% acetone solution of diethylaminoethyl acetylsalicylate.acetylsalicylic acid salt (P-1, in acetone, 20 mg/kg) and diethylaminoethyl acetylsalicylsalicylate. acetylsalicylsalicylic acid salt (P-59, 20 mg/kg) were topically applied to the back of the rabbits. After 2 days, rabbits were euthanized with an excessive intravenous injection of sodium amobarbital (60 mg/kg). The lungs and hearts were isolated to observe whether thrombi were present in the pulmonary arteries. The lungs were immersed in 10% formalin for 24 h. Consecutive transverse sections along the obstructed pulmonary arteries were paraffin-embedded and stained with hematoxylin-eosine. […]
# normal rats [6] = assay: Blood glucose in normal rats, transdermal; type: in vivo, rat
# Method in brief: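 Compounds equivalent to 20 mg/kg NSAIA were applied transdermally to a shaved ~1.5 cm^2 area of rat backs once daily at 8 am for 5 weeks (n=7). Non-fasting blood glucose was measured every 3 days at 3 pm from week 2 to week 5, and blood lipids at the end of week 5.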
# normal rats [7] = assay: Blood glucose in normal rats, oral with food; type: in vivo, rat
# [8] = system: rats (SLAC/GK, type 2 diabetes); assay: Blood lipid in type 2 diabetes rats, oral with food; type: in vivo, rat
# Method in brief: (§1)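 Compounds (dosed equivalent to 20 mg/kg of NSAIAs) mixed in food and given orally daily for 5 weeks to rats (n=7). Non-fasting blood glucose measured every 3 days at 3 pm from week 2 to week 5; blood lipids measured at end of week 5.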
# [9] = system: rats (SLAC/GK, type 2 diabetes); assay: Blood glucose in type 2 diabetes rats, oral with food; type: in vivo, rat
# Method in brief: as §1
# [10] = system: rats (SLAC/GK, type 2 diabetes); assay: Blood glucose in type 2 diabetes rats, transdermal; type: in vivo, rat; details: diabetic rats (SLAC/GK)
# Method in brief: (§2)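 GK type 2 diabetic rats (n=7) received the HPPs transdermally on a shaved ~1.5 cm^2 area of the back, at a dose equal to 20 mg/kg of NSAIAs, once daily for 5 weeks. Non-fasting blood glucose was measured every 3 days at 3 pm from week 2 to week 5, and blood lipids at the end of week 5.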
# [11] = system: rats (SLAC/GK, type 2 diabetes); assay: Blood lipid in type 2 diabetes rats, transdermal; type: in vivo, rat
# Method in brief: as §2
# [12] = 1 hour after 50 mg/kg on the back of sheep, 10% aqueous solution
# C57/BL6 mice, MPTP [13] = assay: MPTP Parkinson's disease mice: GSH and MDA in the substantia nigra; type: in vivo, mouse; details: MPTP + 30 mg/kg transdermally 14 days
# Excerpt: (§3) The mice were divided into 2 groups.
# [14] = system: spontaneously hypertensive and stroke prone rats (SLAC/SHRSP); assay: Alleviation of the effects of strokes (treatment from 24 hours after operation); type: in vivo, rat; details: 50 mg/kg twice per day on the back from 24 hours after the operation
# Procedure: (§4) Thrombosis was induced by electrical stimulation (1 mA for 3 minutes) of the carotid artery in spontaneously hypertensive and stroke prone rats (SLAC/SHRSP) by using a thrombosis formation instrument (YLS-14A, Shandong Academy of Medical Sciences, Shandong, China). The rats (Spragu Dawley, 25 weeks old, 380-450 g) were divided into 3 groups randomly, group A is the control group, groups B and C are aspirinamine-treated group. In group B, 100 mg/kg of aspirinamine citric acid salt (10% in water) was applied to the rats' back skin (˜5 cm^2, fur was cut off) 2 hour before the operation and 1 hour after the operation, then 50 mg/kg of the drug was applied to the back of rats twice per day. In group C, 50 mg/kg of aspirinamine was applied to the back of rats twice per day starting from 24 hours after the operation. The recovery of motor functions of rats was evaluated every day. The operation process is outlined in the Method section in the supporting online materials. […] The HPP of aspirin is the first drug which can reverses paralysis from post-stroke.
# [15] = system: spontaneously hypertensive and stroke prone rats (SLAC/SHRSP); assay: Anti-stroke activity, carotid thrombosis by electrical stimulation (treated before operation); type: in vivo, rat; details: 100 mg/kg transdermally 2 hour before and 1 hour after operation, then 50 mg/kg twice per day
# Procedure: as §4
# C57/BL6 mice, MPTP [16] = assay: MPTP Parkinson's disease mice: DA, NA, 5-HT in the striatum; type: in vivo, mouse
# Excerpt: as §3
# C57/BL6 mice, MPTP [17] = assay: MPTP Parkinson's disease mice: GABA and Glu in substantia nigra and striatum
# Procedure: Group A mice were i.p. injected 0.4% sodium carboxymethylcellulos (15 ml/kg per day) for 7 days. Group B and C mice were i.p. injected N-methyl-4-phenyl-1,2,3,6-tetrahydropyridine (MPTP, 30 mg/kg per day) for 7 days. The mice were divided into 2 groups. […] All mice were killed after the last treatment and the brain tissues were quickly frozen at −80° C. […] The contents of GABA and Glu in the striatum and SN were shown by high performance amino acid auto-analyser.
# [18] = system: cats with ocular hypertension; assay: Intraocular pressure in cats with ocular hypertension; type: in vivo, cat; details: group B
# Procedure: The ability of diethylaminoethyl acetylsalicylate.HCl to reduce intraocular pressure (IOP) was evaluated in cats with ocular hypertension produced by previously done laser trabeculoplastry. IOP was determined with a pneumatonometer after light corneal anesthesia with dilute proparacaine. 14 Cats were divided into 2 groups. Baseline IOP was determined prior to treatment with the test compound aqueous solution. […] In group B, 30 mg/kg of diethylaminoethyl acetylsalicylate.HCl the area around eye (outside) of cat trice per day for 10 days.
# [19] = baseline, equal to 20 mg/kg of NSAIAs
# [20] = end of the fifth week, equal to 20 mg/kg of NSAIAs every day
# [21] = end of the fifth week, equal to 20 mg/kg of NSAIAs once per day
# [22] = MPTP mice, 30 mg/kg transdermally to the neck once per day for 14 days
# [23] = MPTP mice, 30 mg/kg transdermally once per day for 14 days
smiles,measurement,setting,value
"CC(=O)O.CC(C)Cc1ccc(C(C)C(=O)OCC2CCCNC2)cc1 (stereo not shown) [P-5, 3-piperidinemethyl 2-(ρ-isobutylphenyl) propionate.AcOH]",skin lesions and lupus nephritis,mice (MRL/LPR),all skin lesions and lupus nephritis were resolved
same,lesions similar to psoriasis,Chinese white rabbits [1],the lesions were resolved
same,Tumor size,[2],190 ± 50 mm^3
same,Tumor size,[3],390 ± 110 mm^3
"CC(=O)Oc1ccccc1C(=O)Oc1ccccc1C(=O)O.CCN(CC)CCOC(=O)c1ccccc1OC(=O)c1ccccc1OC(C)=O [P-59, diethylaminoethyl acetylsalicylsalicylate.acetylsalicylsalicylic acid salt]","Blood glucose, Average","[4]; average fourth to seventh week, no fasting, equal to 30 mg/kg of NSAIAs once per day for 7 weeks",8.7 ± 1 mmol/L
same,"Blood glucose, Baseline","[4]; baseline, equal to 30 mg/kg of NSAIAs",24.3 ± 3 mmol/L
same,lung tissue and vascular walls (thrombus propagation),Chinese white rabbits [5],both lung tissue and vascular walls were normal
same,"Blood glucose, Average","normal rats [6]; normal rats (second Average line of Table 24), average second to fifth week, equal to 20 mg/kg of NSAIAs once per day",7.3 ± 1 mmol/L
same,"Blood glucose, Baseline","normal rats [6]; normal rats (second Baseline line of Table 24), baseline, equal to 20 mg/kg of NSAIAs",7.2 ± 1 mmol/L
same,"Blood glucose, Normal rats, Average","normal rats [7]; average second to fifth week, equal to 20 mg/kg of NSAIAs every day",7.3 ± 1 mmol/L
same,"Blood glucose, Normal rats, Baseline",normal rats [7]; [19],7.5 ± 1 mmol/L
same,"Cholesterol (HDL), Baseline",[8]; [19],1.9 ± 0.2 mmol/L
same,"Cholesterol (total), Baseline",[8]; [19],7.7 ± 0.6 mmol/L
same,"Triglycerides, Baseline",[8]; [19],5.4 ± 0.6 mmol/L
same,"Cholesterol (HDL), Average",[8]; [20],1.8 ± 0.2 mmol/L
same,"Cholesterol (total), Average",[8]; [20],5.7 ± 0.3 mmol/L
same,"Triglycerides, Average",[8]; [20],2.7 ± 0.2 mmol/L
same,"Blood glucose, Diabetic rats, Average","[9]; average second to fifth week, no fasting, equal to 20 mg/kg of NSAIAs every day for 5 weeks",8.6 ± 1 mmol/L
same,"Blood glucose, Diabetic rats, Baseline",[9]; [19],15.3 ± 3 mmol/L
same,"Blood glucose, Average","[10]; average second to fifth week, no fasting, equal to 20 mg/kg of NSAIAs once per day for 5 weeks",8.7 ± 1 mmol/L
same,"Blood glucose, Baseline","[10]; baseline, equal to 20 mg/kg of NSAIAs once per day",16.3 ± 3 mmol/L
same,"Cholesterol (HDL), Baseline",[11]; [19],1.6 ± 0.2 mmol/L
same,"Cholesterol (total), Baseline",[11]; [19],7.6 ± 0.6 mmol/L
same,"Triglycerides, Baseline",[11]; [19],5.6 ± 0.5 mmol/L
same,"Cholesterol (HDL), Average",[11]; [21],1.6 ± 0.2 mmol/L
same,"Cholesterol (total), Average",[11]; [21],5.1 ± 0.3 mmol/L
same,"Triglycerides, Average",[11]; [21],1.9 ± 0.2 mmol/L
CCN(CC)CCOC(=O)C(C)c1ccc(CC(C)C)cc1.O=C(O)CC(O)(CC(=O)O)C(=O)O (stereo not shown) [diethylaminoethyl 2-(ρ-isobutylphenyl)propionate. citric acid salt],ibuprofen found in the milk,[12],55 ± 8 µg/mL
same,ibuprofenamine found in the milk,[12],10 ± 5 µg/mL
CCN(CC)CCOC(=O)c1ccccc1OC(C)=O.O=C(O)CC(O)(CC(=O)O)C(=O)O [diethylaminoethyl acetylsalicylate.citric acid],MDA in the substantia nigra,"C57/BL6 mice, MPTP [13]; control 13 ± 3, MPTP + water 21 ± 4",14 ± 4 μmol/g protein
same,GSH in the substantia nigra,"C57/BL6 mice, MPTP [13]; control 152 ± 12, MPTP + water 101 ± 17",143 ± 13 μg/g protein
same,Stroke-free rats (3 hrs),[14]; 3 hrs after operation (before treatment start),0/10
same,Stroke-free rats (2 day),[14]; 2 day,4/10
same,Weight Loss (3 days),[14]; 3 days,−13 +/− 7%
same,Stroke-free rats (7 day),[14]; 7 day,9/10
same,Weight Loss (7 days),[14]; 7 days,−7 +/− 4%
same,Stroke-free rats (14 days),[14]; 14 days,10/10
same,Weight Loss (14 days),[14]; 14 days,−4 +/− 2%
same,Stroke-free rats (2 hours),[15],8/10
same,Stroke-free rats (1 day),[15],9/10
same,Stroke-free rats (7 days),[15],10/10
same,"DA, NA, and 5-HT contents in the striatum","C57/BL6 mice, MPTP [16]; 30 mg/kg transdermally, vs MPTP model group, P<0.05",increased
same,5-HT concentration in the striatum,"C57/BL6 mice, MPTP [16]; [22]",302 ± 29
same,DA concentration in the striatum,"C57/BL6 mice, MPTP [16]; [22]",817 ± 89 μg/g wet tissue
same,NA concentration in the striatum,"C57/BL6 mice, MPTP [16]; [22]",602 ± 55
same,MPTP-induced changes of GABA in striatum and SN,"C57/BL6 mice, MPTP [17]; 30 mg/kg",reversed
same,"GABA concentration, Striatum","C57/BL6 mice, MPTP [17]; [23]",4.9 ± 1.6 μmol/g wet tissue
same,"GABA concentration, Substantia nigra","C57/BL6 mice, MPTP [17]; [23]",4.7 ± 0.5 μmol/g wet tissue
same,"Glu concentration, Striatum","C57/BL6 mice, MPTP [17]; [23]",26.5 ± 2.7
same,"Glu concentration, Substantia nigra","C57/BL6 mice, MPTP [17]; [23]",29.5 ± 2.4
CCN(CC)CCOC(=O)c1ccccc1OC(C)=O.Cl [diethylaminoethyl acetylsalicylate•HCl],"Intraocular pressure, Base-line","[18]; base-line, prior to treatment, 30 mg/kg around the eye",24.1 ± 0.7
same,"Intraocular pressure, End of treatment (day10)","[18]; day 10, 30 mg/kg applied to the area around the eye for 10 days",16.1 ± 0.5
